System: high phosphate-induced kidney damage
Test: mouse model of high phosphate-induced kidney damage
Assay type: in vivo, C57BL/6 male mice
Settings: 100 mg/kg 3 times/week subcutaneously, high phosphate diet, vs vehicle
Description: C57BL/6 male were placed on either regular diet containing 0.35% inorganic phosphate (NP) or high phosphate diet containing 2.0% inorganic phosphate (HP). These mice were subcutaneously injected with either (OEG2)2-IP4 (100 mg/kg) or vehicle (distilled water) three times a week and then sacrificed at 20 weeks of age to harvest their blood and kidneys. Relative mRNA levels of (A) Spp1, (B) IL36a, (C) Ngal, (D) MMP3 and (E) Col1a1 in kidney tissue homogenate are shown (mean±SD, N=7, except HP vehicle group N=6, two-way ANOVA with Sidak's multiple comparison between (OEG2)2-IP4 vs. vehicle control within the respective diet group, ns—not significant, * p<0.05). […]
C57BL/6 male mice (12 weeks of age) were placed on either regular diet containing 0.35% inorganic phosphate or high phosphate diet containing 2.0% inorganic phosphate. […] Serum FGF23 levels were measured using intact FGF23 ELISA (Kinos) according to the manufacturers' protocols. Serum and urine levels of phosphate were measured using Fuji Dri-Chem slides and the analyzer (Dri-Chem NX500V, Fuji, Tokyo, Japan). […] Quantitative RT-PCR reactions were performed using 20 ng of cDNA incubated with 410 nM of each primer and 6 μL of SYBR Green PCR Master mix (Toyoba, Osaka, Japan THUNDERBIRD SYBR qPCR Mix QPS-201) in a total volume of 12 μl. […] The cortex and the cortico-medullary junction were evaluated separately. […]

COCCOCCO[C@@H]1C(OP(=O)(O)O)[C@H](OCCOCCOC)[C@@H](OP(=O)(O)O)C(OP(=O)(O)O)[C@H]1OP(=O)(O)O (some centres unmarked) [(OEG2)2-IP4]
fibrosis, collagen volume fraction (Picro-Sirius red staining of the kidneys): significantly reduces fibrosis
kidney damage and fibrosis markers (Spp1, IL36a, Ngal, MMP3, Col1a1 mRNA): significantly reduced

Reference: patent US12076331B2, “Inositol derivatives for use in pathological crystallization” (ETH Zurich, priority 2015, dated 2024)
